Some test systems named below: 786-0 renal; COLO 205 colon; K-562 leukemia; MALME-3M melanoma; MDA-MB-231 breast; OVCAR-3 ovarian; RPMI-8226 leukemia; SF-268 CNS; SK-MEL-2 melanoma; SNB-75 CNS.
What all share (assay): NCI-60 cell line screen, 48 h

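Dose response: 5 concentrations. Exposure: 48 h. Format: 96-well plates. Endpoint: linear interpolation; highest concentration if not reached. GI50: concentration for 50% inhibition of growth. TGI: total growth inhibition.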

`CN(C)S(=O)(=O)c1ccc(Nc2ccc(O)c3c2C(=O)c2c([N+](=O)[O-])ccc(O)c2C3=O)cc1`: the TGI with 786-0 renal, in the test with COLO 205 colon, in the test with K-562 leukemia, with MALME-3M melanoma, in the test with MDA-MB-231 breast and in the test with OVCAR-3 ovarian was greater than 100 µM each time. In addition, the TGI with RPMI-8226 leukemia, in the test with SF-268 CNS, in the test on SK-MEL-2 melanoma and with SNB-75 CNS was greater than 100 µM throughout.
`O=C1CC/C(=C\COc2ccc3ccc(=O)oc3c2)O1`: the GI50 was 2.89 µM with 786-0 renal; 3.21 µM with COLO 205 colon; 9.89 µM with K-562 leukemia; 3.47 µM in the test on MALME-3M melanoma; 13.8 µM in the test on MDA-MB-231 breast; 4.44 µM with OVCAR-3 ovarian. The GI50 in the test with RPMI-8226 leukemia was 1.07 µM; in the test on SF-268 CNS, 11.9 µM; in the test on SK-MEL-2 melanoma, 10.9 µM; in the test on SNB-75 CNS it was 12.7 µM. The TGI was 15.9 µM with 786-0 renal; 17.5 µM in the test with COLO 205 colon; greater than 100 µM in the test with K-562 leukemia; 24.4 µM with MALME-3M melanoma; 29.4 µM with MDA-MB-231 breast; 22 µM in the test on OVCAR-3 ovarian. Moreover, the TGI is 17.3 µM in the test with RPMI-8226 leukemia, 63 µM in the test with SF-268 CNS, 36.8 µM with SK-MEL-2 melanoma and 30.2 µM in the test with SNB-75 CNS.
Turning to `COc1cc2ncn(-c3cc(OCc4ccccc4S(C)(=O)=O)c(C#N)s3)c2cc1OC`, the GI50 with 786-0 renal, with COLO 205 colon, in the test with K-562 leukemia, in the test with MALME-3M melanoma, in the test on MDA-MB-231 breast and in the test with OVCAR-3 ovarian was greater than 25 µM each time. The GI50 was greater than 25 µM in the test on RPMI-8226 leukemia, greater than 22.7 µM with SF-268 CNS, greater than 23.4 µM in the test with SK-MEL-2 melanoma and 8.19 µM in the test on SNB-75 CNS. Further, the TGI in the test with 786-0 renal, with COLO 205 colon, in the test on K-562 leukemia, in the test on MALME-3M melanoma, in the test on MDA-MB-231 breast and with OVCAR-3 ovarian was greater than 25 µM throughout. In addition, the TGI with RPMI-8226 leukemia is greater than 25 µM; in the test with SF-268 CNS it was greater than 25 µM; in the test with SK-MEL-2 melanoma, greater than 25 µM; in the test on SNB-75 CNS it was greater than 22.6 µM.
Consider `CO/N=C(/COc1c(-c2ccccc2)oc2ccccc2c1=O)c1ccc(F)cc1`, for which the GI50 is 25.1 µM with 786-0 renal; greater than 100 µM in the test on COLO 205 colon; greater than 100 µM in the test on K-562 leukemia; 52.9 µM in the test on MALME-3M melanoma; 20.5 µM in the test with MDA-MB-231 breast; 56.7 µM with OVCAR-3 ovarian. Moreover, the figures for the GI50 in the test on RPMI-8226 leukemia, with SK-MEL-2 melanoma and in the test on SNB-75 CNS were 72.1 µM, 58.4 µM and 28 µM, respectively. For the same compound, the TGI in the test on 786-0 renal is 64 µM; in the test on COLO 205 colon, greater than 100 µM; with K-562 leukemia it was greater than 100 µM; in the test on MALME-3M melanoma it was greater than 100 µM; with MDA-MB-231 breast, 53.8 µM; in the test on OVCAR-3 ovarian it was greater than 100 µM. Besides, the TGI in the test with RPMI-8226 leukemia is greater than 100 µM; in the test on SK-MEL-2 melanoma, greater than 100 µM; in the test with SNB-75 CNS, 81.1 µM.
`CN1CCC(n2[nH]c(-c3ccccc3)c(Cc3ccccc3)c2=O)CC1`: the TGI with 786-0 renal, in the test on COLO 205 colon, in the test on K-562 leukemia, in the test on MALME-3M melanoma, in the test with MDA-MB-231 breast and with OVCAR-3 ovarian was greater than 100 µM in each case. The TGI with RPMI-8226 leukemia, in the test with SF-268 CNS, in the test on SK-MEL-2 melanoma and in the test on SNB-75 CNS was greater than 100 µM throughout.
Turning to `COc1cc(-c2n/c(=C\c3c(O)[nH]c4ccccc34)cc3c2=Nc2ccccc2-3)cc(OC)c1OC`, the GI50 in the test on 786-0 renal is 0.864 µM; in the test with COLO 205 colon it was 1.55 µM; in the test on K-562 leukemia it was 0.586 µM; in the test on MALME-3M melanoma, 0.448 µM; in the test on MDA-MB-231 breast it was 2.11 µM; in the test with OVCAR-3 ovarian, 0.506 µM. For the same compound, the GI50 was 3.09 µM with RPMI-8226 leukemia, 1.39 µM in the test on SF-268 CNS, 1.41 µM in the test with SK-MEL-2 melanoma and 0.381 µM in the test on SNB-75 CNS. In addition, the TGI in the test on 786-0 renal was 31.7 µM; in the test on COLO 205 colon, 6.7 µM; in the test on K-562 leukemia, greater than 100 µM; with MALME-3M melanoma, greater than 100 µM; in the test with MDA-MB-231 breast, greater than 28.2 µM; with OVCAR-3 ovarian it was 2.6 µM. Also, the TGI is greater than 26.4 µM in the test with RPMI-8226 leukemia, greater than 100 µM in the test with SF-268 CNS, 29.6 µM in the test with SK-MEL-2 melanoma and greater than 100 µM with SNB-75 CNS.
In the case of `N/C(=N\c1nc2ccccc2s1)NC(=O)Nc1cccc2ccccc12`, the GI50 with 786-0 renal was 0.603 µM; with K-562 leukemia, 0.0765 µM; in the test with MALME-3M melanoma, 1.24 µM; in the test with MDA-MB-231 breast, 0.636 µM; in the test on OVCAR-3 ovarian, 0.228 µM; with RPMI-8226 leukemia, 0.418 µM. The results for the GI50 with SF-268 CNS, with SK-MEL-2 melanoma and in the test on SNB-75 CNS were 2.72 µM, 0.582 µM and 0.198 µM, respectively. The TGI in the test with 786-0 renal was greater than 94.8 µM; in the test with K-562 leukemia, greater than 100 µM; in the test on MALME-3M melanoma, greater than 100 µM; with MDA-MB-231 breast, 3.32 µM; in the test on OVCAR-3 ovarian, 1.09 µM; in the test with RPMI-8226 leukemia, greater than 100 µM. The values for the TGI in the test with SF-268 CNS, with SK-MEL-2 melanoma and in the test with SNB-75 CNS were greater than 100 µM, 34 µM and 1.1 µM, respectively.
Consider `CO/C(=N\N=C\c1cccc(C(F)(F)F)c1)c1ccncc1`, for which the GI50 is 8.71 µM in the test on 786-0 renal; 3.08 µM in the test with K-562 leukemia; 9.42 µM with MALME-3M melanoma; 10.8 µM in the test with MDA-MB-231 breast; 7.15 µM in the test on RPMI-8226 leukemia; 22.6 µM in the test with SK-MEL-2 melanoma. The TGI was 24.8 µM in the test with 786-0 renal; 39.6 µM with COLO 205 colon; greater than 100 µM in the test on K-562 leukemia; greater than 100 µM in the test on MALME-3M melanoma; greater than 100 µM with MDA-MB-231 breast; 84.1 µM in the test on OVCAR-3 ovarian. Besides, the TGI in the test on RPMI-8226 leukemia is 81.9 µM; in the test on SK-MEL-2 melanoma, greater than 100 µM; in the test with SNB-75 CNS, 52.9 µM.
`CCCCCCN1CCN(Cc2ccc(N(CC)CC)cc2)C(=O)C1=O`: the GI50 is 4.88 µM with 786-0 renal; 0.759 µM in the test on COLO 205 colon; 0.832 µM in the test with K-562 leukemia; 4.25 µM with MALME-3M melanoma; 4.97 µM in the test with MDA-MB-231 breast; 3.63 µM in the test with RPMI-8226 leukemia. The results for the GI50 with SF-268 CNS, in the test with SK-MEL-2 melanoma and with SNB-75 CNS were 6.21 µM, 3.57 µM and 1.95 µM, respectively. Also, the TGI in the test with 786-0 renal was greater than 100 µM; in the test with COLO 205 colon it was 10.1 µM; in the test with K-562 leukemia it was 75.4 µM; with MALME-3M melanoma, greater than 100 µM; in the test with MDA-MB-231 breast it was greater than 100 µM; in the test with RPMI-8226 leukemia it was 19.2 µM. In addition, the TGI in the test with SF-268 CNS is greater than 100 µM; in the test with SK-MEL-2 melanoma it was 21.2 µM; with SNB-75 CNS, 13.1 µM.

Values taken from PubChem BioAssay (NCI).
